According to patent US20210108198A1, “APPLICATION OF COMPOUND OR TRADITIONAL CHINESE MEDICINE EXTRACT IN PREPARATION OF NUCLEIC ACID DELIVERY AGENT AND RELATED PRODUCTS THEREOF” (INSTITUTE OF BASIC MEDICAL SCIENCES CHINESE ACADEMY OF …, priority 2017, published 2021):
Entries after “also recorded” stand apart in the source; their conditions may differ.

Assays:
A549 cells [1] = assay: Digital PCR (ddPCR) detection of the efficiency of nucleic acid delivery by lipid; assay type: cell-based, human
Method: (§1) 2.2 Experimental method: the total cellular RNA was collected and extracted by TRIzol lysis buffer according to the above methods, and reverse transcribed to cDNA using High capacity cRNA Reverse Transcription Kit, and the cDNA from different groups was subject to digital PCR reaction. Refering to the QX200 Droplet Reader and QuantaSoft Software manual for the protocols, the results were analyzed using QuantaSoft software.
as §1, with “method:” for “method: the”, “total” for “total cellular”, “method,” for “methods,”, “subjected” for “subject”, “Refer” for “Refering”, “protocols;” for “protocols,”
(§2) 2.2 Experimental method: Total RNA was collected and extracted by TRIzol lysis buffer according to the above method, and reverse transcribed to cDNA using TaqMan™ MicroRNA Reverse Transcription KitHigh, and the cDNA from different groups was subjected to digital PCR reaction. Refer to the QX200 Droplet Reader and QuantaSoft Software manual for the protocols; the results were analyzed using QuantaSoft software.
as §2, with “reversed” for “reverse transcribed”, “High capacity cRNA” for “TaqMan™ MicroRNA”, “Kit,” for “KitHigh,”

[2] = system: fibronectin protein expression in MRC-5 cells; assay: Western blot of fibronectin after lipid-mediated delivery of anti-fibrotic HJT-sRNA into TGF-β1 stimulated MRC-5 cells; assay type: cell-based; conditions: nucleic acid 400 nM; TGF-β1 3 ng/mL; preparation method not given; FIG. 102
Method: 3.3.1 MRC-5 cell (pulmonary embryonic fibroblast), and A549 cell (human lung adenocarcinoma cell) were cultured to logarithmic growth phase, and then plated into 12-well plates at a cell density of 6×10^5/1 mL medium/well; MRC-5 cells were cultured in Eagle's MEM medium (MEM, Gibco); A549 cells were cultured in Ham's F-12 medium (HyClone); followed by incubation overnight at 37° C., and the follow-up experiments were performed after the cells were attached to the walls.
4) Lipid nucleic acid mixture: the mixture of lipid and nucleic acid prepared from the step 2 were added into cells and mixed, and the final concentration of nucleic acid was 400 nM.
3.3.3 After 24 hours of treatment, the cells were stimulated with the stimulant (1 μg/mL poly (I:C) (P1530, Sigma-Aldrich) as double-stranded RNA viruses mimetics) or 3 ng/mL transforming growth factor TGFβ1 (Pepro Tech)). […]

[3] = In vivo delivery of single-stranded sRNA by single lipid via gavage (blood, stomach, small intestine, liver); parameters: species or system C57 mice; conditions: 10 μl lipid, 1 nmol each sRNA (PGY-sRNA-23/-26/-32), heating method, 6 hours or 12 hours after administration
Text: Tissues sampled: live/stomach/small intestine.

A549 cells [4] = assay: Confocal fluorescence microscopy of nucleic acid delivered by lipid in cells; assay type: cell-based, human; conditions: 4 μl lipid, boiling method; 6 hours of co-incubation
Method: Experimental materials: A549 cells (purchased from the Cell Center of the Chinese Academy of Medical Sciences), PGY-sRNA-6-Cy3 (purchased from Ribobio Biotechnology Co., Ltd.), lipid No. 41, Zeiss LSM780 (purchased from Zeiss, Germany), Alexa Fluor® 488 phalloidin (purchased from Invitrogen, USA), DAPI (purchased from Invitrogen, USA), paraformaldehyde (purchased from sigma, USA).
(§3) Experimental methods: PGY-sRNA-6-FAM was dissolved in 100 μl water, mixed with 4 μl lipid, and prepared by the boiling method. Then the mixture was dropped into A549 cells, and after 6 hours of co-incubation, the samples were washed three times with PBS, fixed with 4% paraformaldehyde, washed three times with PBS, stained with Alexa Fluor® 488 phalloidin for 30 min, washed 3 times with PBS, and stained with DAPI for 5 min, washed with PBS, and then sealed.
as §3, with “method:” for “methods:”, “water, and” for “water,”, “by” for “by the”, “Then,” for “Then”, “PBS washed,” for “washed with PBS,”

A549 cell = assay: RT-qPCR detection of nucleic acid delivered by lipid into A549 cells; assay type: cell-based, human; conditions: double-stranded HJT-sRNA-m7 100 nM; reverse evaporation method; 12 hours; FIG. 99
Method: 3.1 NCI-N87 cell (gastric cancer cell), MRC-5 cell (lung fibroblast), A549 cell (lung cancer cell) were cultured to logarithmic growth phase, and then plated to a six-well plate at cell density of 1×10^6/2 mL medium/well; MRC-5 cell was cultured in Eagle's MEM medium (MEM, Gibco); A549 cell was cultured in Ham's F-12 medium (HyClone); NCI-N87 cell was cultured in RPMI-1640 medium (HyClone); followed by incubation overnight at 37° C., and the follow-up experiments were performed after the cells were attached to the walls.
4) Lipid nucleic acid mixture: the mixture of lipid and HJT-sRNA-m7 prepared from the step 2 were added into cells and mixed, and the final concentration of RNA was kept at 200 nM.
3.3 After co-incubation with the small RNA for 3 hours, the cells were washed 2-3 times with PBS. The cells were harvested with TRIzol lysis buffer, and the total RNA was extracted. The abundance of small RNA that entered cells was detected by RT-qPCR, and the localization of RNA was detected by fluorescence in situ hybridization; protocols of each detection method were as follows:
3.3.1 RT-qPCR Detection of Small RNA (Taqman Probe Method)
3.3.2 RT-qPCR Detection of Small RNA (SYBR Green Dye Method)
Mixtures of soybean PC, lipid No. 11 (18:0/18:2) and lipid No. 12 (16:0/18:2), and various small RNA (see below Table 3) were prepared by the reverse evaporation method and then added into A549 cell line (the final concentration of sRNA was 200 nM); the negative control group (control) was directly added with the same concentration of sRNA; the positive control group (RNAimax) was transfected with Lipofectamine RNAimax (transfection reagent 6 μl/well). The abundance of sRNA in the cells was detected by Taqman probe after 3 hours, and the relative expression level of sRNA was calculated by 2-ΔCt method.
3.1.3 After co-incubation with cells for 12-24 hours, the cells were washed twice with PBS. The cells were harvested with TRIzol lysis buffer (purchased from Sigma-Aldrich), and total RNA was extracted. The abundance of HJT-sRNA-m7 that entered the cells was detected by RT-qPCR; the protocols were as follows:
4368813) was used to reverse transcribe sRNA to cDNA by stem-loop method (see, e.g. Real-time quantification of microRNAs by stem-loop RT-PCR, Nucleic Acids Res. 2005 Nov. 27; 33(20):e179, incorporated by reference herein).

With `CCCCCCCC/C=C\CCCCCCCCCCCC(=O)O[C@H](COC(=O)CCCCCCCCCCCCCCC)COP(=O)(O)OCCN` [No. 40, (2-aminoethoxy)[(2R)-2-[(13Z)-docos-13-enoyloxy]-3-(hexadecanoyloxy)propoxy]phosphinic acid] the “delivery of HJT-sRNA-m7 dsRNA (ddPCR)” value (A549 cells [1]; boiling method, 6 hours) was “could effectively deliver HJT-sRNA-m7 dsRNA into A549 cells”, the “delivery of HJT-sRNA-m7 dsRNA (ddPCR)” value (A549 cells [1]; reverse evaporation method, 6 hours (No. 39: 6 hours, 12 hours)) was “could effectively deliver HJT-sRNA-m7 dsRNA into A549 cells” and the “fibronectin protein expression after delivery of double-stranded HJT-sRNA-m7 (Western blot)” value [2] was “to down-regulate fibronectin protein expression”. For the same compound, the “entry of single-stranded small RNA into mouse blood (RT-qPCR)” value [3] was “could effectively deliver sRNA single-stranded nucleic acid into mouse blood via oral administration; also recorded: the delivery effect was better than POPC and Lipofectamine RNAiMAX”, the “entry of PGY-sRNA-6-Cy3 observed under the confocal microscopy” value (A549 cells [4]) was “could effectively deliver single-stranded RNA into A549 cells” and the “delivery effect relative to RNAiMAX (real-time PCR)” value (A549 cell) was “½”.
